This note sets out measurements from ChEMBL document CHEMBL6134823, “Combination therapy and dual-target inhibitors based on cyclin-dependent kinases (CDKs): Emerging strategies for cancer therapy” (Eur J Med Chem, 2025).

The structures appear in SMILES notation.

One test addresses Aurora kinase A (Homo sapiens, UniProt O14965). Description: Inhibition of Aurora A (unknown origin).
In test [1] the target is T1, Cyclin-dependent kinase 2 (Homo sapiens, UniProt P24941).
The target in test [2] is Cyclin-dependent kinase 5 (Homo sapiens, UniProt Q00535).
Cyclin-dependent kinase 5, sequence (Q00535 whole entry): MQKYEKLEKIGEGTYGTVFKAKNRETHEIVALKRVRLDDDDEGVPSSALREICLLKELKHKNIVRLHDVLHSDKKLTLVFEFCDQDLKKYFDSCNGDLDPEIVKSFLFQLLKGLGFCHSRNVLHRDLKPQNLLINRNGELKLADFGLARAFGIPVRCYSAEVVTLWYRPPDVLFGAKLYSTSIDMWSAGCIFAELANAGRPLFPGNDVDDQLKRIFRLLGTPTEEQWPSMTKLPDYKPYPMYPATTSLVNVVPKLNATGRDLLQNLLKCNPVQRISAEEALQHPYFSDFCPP
Description: Inhibition of CDK5 (unknown origin)
Test [3] concerns the target Amine oxidase [flavin-containing] A (Homo sapiens, UniProt P21397). Description: Inhibition of MAO-A (unknown origin) measured by MAO-GloTM method.
The test system of test [4] is MDA-MB-231. Description: Cytotoxicity against human MDA-MB-231 cells. It is filed as functional, cell-based.
The next test has as its system SUM-159-PT. Description: Cytotoxicity against human SUM159 cells. It is filed as functional, cell-based.
Another test relates to OVCAR-5. Description: Antiproliferative activity against human OVCAR-5 cells assessed as growth inhibition incubated for 48 hrs by SRB assay. The settings on record: OVCAR-5, 48 h. It is filed as functional, cell-based. For orientation: Sulforhodamine B stains cellular protein and so reports cell mass.
In test [5] the test system is SK-OV-3. Description: Cytotoxicity against human SK-OV-3 cells assessed as inhibition of cell growth incubated for 72 hrs by MTT assay. The following applies: SK-OV-3, 72 h. It is filed as functional, cell-based.
Test [6] concerns the target T2, Poly [ADP-ribose] polymerase 1 (Homo sapiens, UniProt P09874). The experiment in a line: Inhibition of PARP-1 (unknown origin) incubated for 60 mins by chemiluminescent assay.
In test [7] the target is T1, Cyclin-dependent kinase 2. The source holds these as a separate data set.
Description: Inhibition of CDK2 (unknown origin) by mobility shift assay
For test [8], the system named is MCF7. Description: Cytotoxicity against human MCF7 cells assessed as reduction in cell growth incubated fro 72 hrs by MTT assay. It is filed as functional, cell-based. The following applies: MCF7, 72 h. On the technique in general: Tetrazolium assays rely on reduction of a dye to a coloured formazan, in cell work by metabolically active cells.
Test [9] has as its system A549. The experiment in a line: Cytotoxicity against human A549 cells assessed as reduction in cell growth incubated fro 72 hrs by MTT assay. It is filed as functional, cell-based. The following applies: A549, 72 h.
The test system of a further test is HCT-116. The experiment in a line: Cytotoxicity against human HCT-116 cells assessed as reduction in cell growth incubated fro 72 hrs by MTT assay. It is filed as functional, cell-based. The following applies: HCT-116, 72 h.
For the next test, the system named is HepG2. Description: Cytotoxicity against human HepG2 cells assessed as reduction in cell growth incubated fro 72 hrs by MTT assay. It is filed as functional, cell-based. The following applies: HepG2, 72 h.
Test [10] concerns the target T3, Cyclin-dependent kinase 4 (Homo sapiens, UniProt P11802). Description: Inhibition of CDK4 (unknown origin) at 1 uM relative to control.
Test [11] deals with MCF7. Description: Growth inhibition of human MCF-7 cells incubated for 72 hrs by SRB assay. It is filed as functional.
The test system of a further test is K562. The experiment in a line: Growth inhibition of human K562 cells incubated for 72 hrs by SRB assay. It is filed as functional.
The target in test [12] is T3, Cyclin-dependent kinase 4. The experiment in a line: Inhibition of human CDK4 extracted from baculovirus infected Sf9 insect cells incubated for 1 hrs in presence of ATP by liquid scintillation counter analysis.
Test [13] addresses Receptor-type tyrosine-protein kinase FLT3 (Homo sapiens, UniProt P36888). Description: Inhibition human recombinant FLT3.
Test [14] deals with T4, Cyclin-dependent kinase 9 (Homo sapiens, UniProt P50750). Description: Inhibition of CDK9 (unknown origin).
T4 sequence (P50750 whole entry): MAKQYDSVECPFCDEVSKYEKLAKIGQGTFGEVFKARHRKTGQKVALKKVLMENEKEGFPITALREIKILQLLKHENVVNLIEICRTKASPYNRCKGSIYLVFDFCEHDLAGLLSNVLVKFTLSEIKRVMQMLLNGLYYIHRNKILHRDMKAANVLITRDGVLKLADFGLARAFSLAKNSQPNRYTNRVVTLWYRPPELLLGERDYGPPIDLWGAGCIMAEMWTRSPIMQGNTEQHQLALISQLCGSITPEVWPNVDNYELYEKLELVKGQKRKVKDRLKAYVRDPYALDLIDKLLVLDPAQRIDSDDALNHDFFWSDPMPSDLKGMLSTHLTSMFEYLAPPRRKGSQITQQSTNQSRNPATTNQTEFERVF
Test [15] deals with T5, Epidermal growth factor receptor (Homo sapiens, UniProt P00533).
T5 sequence (P00533 whole entry): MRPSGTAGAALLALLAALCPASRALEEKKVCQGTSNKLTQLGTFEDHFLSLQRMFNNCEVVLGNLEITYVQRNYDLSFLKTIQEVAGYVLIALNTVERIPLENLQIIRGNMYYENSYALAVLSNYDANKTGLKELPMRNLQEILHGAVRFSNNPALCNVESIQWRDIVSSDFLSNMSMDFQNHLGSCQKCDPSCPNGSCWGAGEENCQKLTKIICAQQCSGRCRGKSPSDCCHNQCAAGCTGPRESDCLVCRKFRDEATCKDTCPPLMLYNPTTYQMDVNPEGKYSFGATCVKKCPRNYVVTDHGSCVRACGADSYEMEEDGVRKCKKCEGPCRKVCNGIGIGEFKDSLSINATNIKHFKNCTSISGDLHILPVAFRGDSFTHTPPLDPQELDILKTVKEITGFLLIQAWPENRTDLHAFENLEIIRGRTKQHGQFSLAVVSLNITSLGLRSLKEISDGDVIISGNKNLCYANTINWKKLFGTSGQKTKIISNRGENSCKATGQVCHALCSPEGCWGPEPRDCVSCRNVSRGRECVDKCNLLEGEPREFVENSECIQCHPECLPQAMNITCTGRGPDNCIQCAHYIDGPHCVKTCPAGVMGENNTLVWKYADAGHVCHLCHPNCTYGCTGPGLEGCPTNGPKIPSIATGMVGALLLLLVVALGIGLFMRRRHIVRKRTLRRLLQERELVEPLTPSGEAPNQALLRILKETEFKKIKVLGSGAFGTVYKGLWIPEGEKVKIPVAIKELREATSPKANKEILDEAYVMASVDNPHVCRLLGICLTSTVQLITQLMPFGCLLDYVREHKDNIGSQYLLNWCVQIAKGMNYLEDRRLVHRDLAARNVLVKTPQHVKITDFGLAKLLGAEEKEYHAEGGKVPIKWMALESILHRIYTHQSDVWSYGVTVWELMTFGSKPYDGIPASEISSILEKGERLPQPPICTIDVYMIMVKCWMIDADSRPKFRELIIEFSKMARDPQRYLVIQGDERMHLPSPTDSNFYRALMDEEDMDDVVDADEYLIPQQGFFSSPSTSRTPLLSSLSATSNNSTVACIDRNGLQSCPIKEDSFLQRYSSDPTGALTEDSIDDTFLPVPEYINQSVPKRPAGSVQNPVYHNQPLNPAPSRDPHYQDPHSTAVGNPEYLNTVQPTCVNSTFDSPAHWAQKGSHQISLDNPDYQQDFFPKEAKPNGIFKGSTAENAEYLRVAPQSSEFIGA
For test [16], the system named is A549. Description: Antiproliferative activity against human A549 cells assessed as reduction in cell viability incubated for 24 hrs by MTT assay. The following applies: A549, 24 h. It is filed as functional, cell-based.
The subject of test [17] is MCF7. Description: Antiproliferative activity against human MCF7 cells assessed as reduction in cell viability incubated for 24 hrs by MTT assay. It is filed as functional, cell-based. The following applies: MCF7, 24 h.
In another test the test system is PANC-1. Description: Antiproliferative activity against human PANC-1 cells assessed as reduction in cell viability incubated for 24 hrs by MTT assay. It is filed as functional, cell-based. The settings on record: PANC-1, 24 h.
The test system of another test is HT-29. Description: Antiproliferative activity against human HT-29 cells assessed as reduction in cell viability incubated for 24 hrs by MTT assay. It is filed as functional, cell-based. The settings on record: HT-29, 24 h.
The target in test [18] is T5, Epidermal growth factor receptor. Description: Inhibition of EGFR (unknown origin) using Poly (Glu, Tyr) as substrate incubated for 60 mins in presence of ATP by Kinase-Glo Plus luminescence kinase assay relative to control. In general terms: In Kinase-Glo more light means more ATP remaining.
For test [19], the system named is MCF7. Description: Cytotoxicity against human MCF7 cells assessed as reduction in cell growth incubated for 72 hrs by MTT assay. It is filed as functional, cell-based. The following applies: MCF7, 72 h.
Test [20] relates to MDA-MB-231. The experiment in a line: Cytotoxicity against human MDA-MB-231 cells assessed as reduction in cell growth incubated for 72 hrs by MTT assay. It is filed as functional, cell-based. The settings on record: MDA-MB-231, 72 h.
Test [21] has as its target T4, Cyclin-dependent kinase 9.
Description: Inhibition of CDK9 (unknown origin) by ADP-Glo kinase assay
In test [22] the target is Cyclin-dependent kinase 7 (Homo sapiens, UniProt P50613). The experiment in a line: Inhibition of CDK7 (unknown origin).
Cyclin-dependent kinase 7, sequence (P50613 whole entry): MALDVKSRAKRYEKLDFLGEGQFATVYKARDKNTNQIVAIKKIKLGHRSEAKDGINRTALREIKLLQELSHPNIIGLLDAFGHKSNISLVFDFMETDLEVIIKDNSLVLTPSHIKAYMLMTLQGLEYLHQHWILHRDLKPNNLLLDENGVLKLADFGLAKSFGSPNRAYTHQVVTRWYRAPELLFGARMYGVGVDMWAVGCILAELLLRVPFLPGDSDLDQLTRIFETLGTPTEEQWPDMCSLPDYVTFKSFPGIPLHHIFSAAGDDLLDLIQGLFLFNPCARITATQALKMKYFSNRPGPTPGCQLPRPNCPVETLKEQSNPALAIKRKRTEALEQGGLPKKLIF
The next test concerns the target Histone deacetylase 2 (Homo sapiens, UniProt Q92769).
Test [23] deals with Cyclin-dependent kinase 1/cyclin B1 (Homo sapiens) (UniProt P06493+P14635). The experiment in a line: Inhibition of CDK1/cyclin B1 (unknown origin) at 10 nM relative to control. It is filed as protein-complex assay.
For test [24], the target named is Receptor tyrosine-protein kinase erbB-2 (Homo sapiens) (UniProt P04626). Description: Inhibition of HER2 (unknown origin) at 10 uM in presence of ATP relative to control.
A further test deals with HeLa. Description: Antiproliferative activity against human HeLa cells. It is filed as functional, cell-based.
Test [25] is described as follows: Antiproliferative activity against human PC-3 cells. It is filed as functional, cell-based.
Test [26] deals with SK-OV-3. The experiment in a line: Antiproliferative activity against human SK-OV-3 cells. It is filed as functional, cell-based.
For test [27], the system named is A549. Description: Antiproliferative activity against human A549 cells. It is filed as functional, cell-based.
For test [28], the target named is Extracellular calcium-sensing receptor (Homo sapiens, UniProt P41180). Description: Inhibition of CASR (unknown origin).
The target of test [29] is T1, Cyclin-dependent kinase 2. Description: Inhibition of CDK2 (unknown origin) by luminescence kinase assay.
The next test deals with Histone deacetylase 1 (Homo sapiens, UniProt Q13547).
Test [30] concerns the target T2, Poly [ADP-ribose] polymerase 1. The experiment in a line: Inhibition of PARP1 (unknown origin).
The subject of another test is BT-549. The experiment in a line: Cytotoxicity against human BT-549 cells assessed as cell growth inhibition. It is filed as functional, cell-based.
In test [31] the test system is MDA-MB-231. The experiment in a line: Cytotoxicity against human MDA-MB-231 cells assessed as cell growth inhibition. It is filed as functional, cell-based.
The next test concerns MDA-MB-468. Description: Cytotoxicity against human MDA-MB-468 cells assessed as cell growth inhibition. It is filed as functional, cell-based.
For test [32], the target named is Cyclin-dependent kinase 6 (Homo sapiens, UniProt Q00534).
Description: Inhibition of CDK6 (unknown origin))

T3 sequence (P11802 whole entry): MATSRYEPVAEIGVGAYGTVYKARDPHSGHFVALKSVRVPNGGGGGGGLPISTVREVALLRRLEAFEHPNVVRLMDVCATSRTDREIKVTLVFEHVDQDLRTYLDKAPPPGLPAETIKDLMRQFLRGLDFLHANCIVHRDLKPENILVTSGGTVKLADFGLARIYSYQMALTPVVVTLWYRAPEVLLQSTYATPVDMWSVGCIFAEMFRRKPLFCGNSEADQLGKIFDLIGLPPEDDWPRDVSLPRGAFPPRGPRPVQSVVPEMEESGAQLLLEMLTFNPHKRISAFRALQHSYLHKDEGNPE
T2 sequence (P09874 whole entry): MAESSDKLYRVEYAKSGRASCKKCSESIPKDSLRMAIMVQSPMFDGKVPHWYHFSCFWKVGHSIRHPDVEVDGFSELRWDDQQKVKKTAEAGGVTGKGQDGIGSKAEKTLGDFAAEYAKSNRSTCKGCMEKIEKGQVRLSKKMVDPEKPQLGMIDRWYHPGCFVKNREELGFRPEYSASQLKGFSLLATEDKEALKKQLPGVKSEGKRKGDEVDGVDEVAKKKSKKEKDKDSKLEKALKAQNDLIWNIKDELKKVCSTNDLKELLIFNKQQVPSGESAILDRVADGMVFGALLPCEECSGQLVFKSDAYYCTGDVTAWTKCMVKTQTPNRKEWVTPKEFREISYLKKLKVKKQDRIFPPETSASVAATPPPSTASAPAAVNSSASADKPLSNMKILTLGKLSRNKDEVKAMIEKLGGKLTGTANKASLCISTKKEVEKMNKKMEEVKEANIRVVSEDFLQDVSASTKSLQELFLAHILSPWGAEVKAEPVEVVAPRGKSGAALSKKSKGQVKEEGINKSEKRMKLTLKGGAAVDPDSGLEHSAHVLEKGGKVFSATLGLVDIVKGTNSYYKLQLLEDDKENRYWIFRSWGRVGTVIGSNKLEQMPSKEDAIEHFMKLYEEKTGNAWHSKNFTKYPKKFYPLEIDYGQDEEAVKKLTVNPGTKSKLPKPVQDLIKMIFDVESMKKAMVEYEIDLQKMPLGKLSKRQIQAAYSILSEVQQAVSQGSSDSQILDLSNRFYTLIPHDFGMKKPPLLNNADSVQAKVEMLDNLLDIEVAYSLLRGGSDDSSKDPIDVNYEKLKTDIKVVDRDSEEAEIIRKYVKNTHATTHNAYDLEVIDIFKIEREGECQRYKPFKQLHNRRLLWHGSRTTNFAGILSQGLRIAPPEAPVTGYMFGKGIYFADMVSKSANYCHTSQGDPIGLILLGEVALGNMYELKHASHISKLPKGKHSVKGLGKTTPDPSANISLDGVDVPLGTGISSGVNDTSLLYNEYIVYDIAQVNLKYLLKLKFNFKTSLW
Receptor-type tyrosine-protein kinase FLT3, sequence (P36888 whole entry): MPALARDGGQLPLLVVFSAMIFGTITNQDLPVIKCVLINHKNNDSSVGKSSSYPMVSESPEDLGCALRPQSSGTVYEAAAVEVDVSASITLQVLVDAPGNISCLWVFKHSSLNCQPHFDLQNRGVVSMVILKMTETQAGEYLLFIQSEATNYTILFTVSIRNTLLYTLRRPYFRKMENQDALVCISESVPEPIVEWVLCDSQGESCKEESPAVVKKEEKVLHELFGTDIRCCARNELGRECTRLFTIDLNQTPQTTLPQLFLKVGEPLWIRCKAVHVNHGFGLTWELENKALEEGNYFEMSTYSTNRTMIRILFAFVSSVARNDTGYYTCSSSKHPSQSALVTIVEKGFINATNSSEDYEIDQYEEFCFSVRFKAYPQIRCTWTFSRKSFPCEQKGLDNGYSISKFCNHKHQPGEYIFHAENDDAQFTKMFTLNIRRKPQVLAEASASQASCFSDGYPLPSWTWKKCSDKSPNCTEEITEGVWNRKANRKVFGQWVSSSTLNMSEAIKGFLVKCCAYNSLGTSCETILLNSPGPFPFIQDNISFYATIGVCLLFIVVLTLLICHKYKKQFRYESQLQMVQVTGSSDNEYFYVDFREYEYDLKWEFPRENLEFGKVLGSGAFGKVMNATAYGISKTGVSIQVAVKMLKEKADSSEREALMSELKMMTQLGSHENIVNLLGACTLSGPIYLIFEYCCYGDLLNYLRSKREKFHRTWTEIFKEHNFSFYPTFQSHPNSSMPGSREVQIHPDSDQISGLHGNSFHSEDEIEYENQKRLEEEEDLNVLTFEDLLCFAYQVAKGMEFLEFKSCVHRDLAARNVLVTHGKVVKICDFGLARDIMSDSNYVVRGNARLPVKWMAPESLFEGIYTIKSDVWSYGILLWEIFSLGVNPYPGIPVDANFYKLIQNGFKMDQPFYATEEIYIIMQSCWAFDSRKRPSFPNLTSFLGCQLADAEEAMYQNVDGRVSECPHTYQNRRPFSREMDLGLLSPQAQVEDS
Histone deacetylase 2, sequence (Q92769 whole entry): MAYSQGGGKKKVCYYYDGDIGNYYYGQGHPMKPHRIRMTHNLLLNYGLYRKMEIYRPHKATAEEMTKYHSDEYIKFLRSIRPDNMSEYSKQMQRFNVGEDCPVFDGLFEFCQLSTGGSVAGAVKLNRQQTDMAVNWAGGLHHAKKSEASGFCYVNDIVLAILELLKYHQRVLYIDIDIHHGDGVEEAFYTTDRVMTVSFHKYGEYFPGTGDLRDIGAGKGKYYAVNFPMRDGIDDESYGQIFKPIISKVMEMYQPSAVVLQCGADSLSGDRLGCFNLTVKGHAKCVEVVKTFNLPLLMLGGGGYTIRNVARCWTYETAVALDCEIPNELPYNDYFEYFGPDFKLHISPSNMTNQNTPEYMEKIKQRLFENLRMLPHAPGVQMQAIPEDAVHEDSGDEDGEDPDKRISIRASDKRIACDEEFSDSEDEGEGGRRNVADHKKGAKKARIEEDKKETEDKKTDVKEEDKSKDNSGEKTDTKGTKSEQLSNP
Description for Histone deacetylase 1: Inhibition of HDAC1 (unknown origin)
Description for Histone deacetylase 2: Inhibition of HDAC2 (unknown origin)

In the case of `CC[C@H](CO)Nc1nc(NCc2ccccc2N)c2[nH]nc(C(C)C)c2n1`, the values for the IC50 (against Aurora kinase A; in [1]; in test [2]) were 0.4 µM, 0.07 µM and 0.26 µM, respectively.
Turning to `O=C(Nc1ccc2[nH]ncc2c1)c1cccc(Cl)c1Cl`, the IC50 (usually the concentration that gives 50% inhibition) in [3] was over 10 µM.
Turning to `Cc1nc2c(F)cc(-c3nc(Nc4ccc(N5CCN(C(=O)c6cc(Cc7n[nH]c(=O)c8ccccc78)ccc6F)CC5)cn4)ncc3F)cc2n1C(C)C`, the IC50 in the test with MDA-MB-231 [4] was found to be 3.61 µM; in the test with SUM-159-PT, 0.435 µM; in the test with OVCAR-5, 0.758 µM; in the test with SK-OV-3 [5], 0.548 µM.
With `Cc1nnc2n1N=C(c1ccccc1OCC(=O)NCCCNC(=O)COc1ccccc1C1=Nn3c(C)nnc3SC1)CS2`, in test [6], the midpoint of inhibition, the IC50, lay at 0.00137 µM.
Take `O=C1Nc2ccccc2/C1=C1/Nc2ccccc2C1=O` [INDIRUBIN]: in test [7], half-maximal inhibition (IC50) was put at 0.003 µM.
Regarding `N[C@H]1CCN(c2c3cc(-c4ccnc(NC(=O)C5CC5)c4)ccc3nc3c2[nH]c2ccccc23)C1`, the IC50 came out at 1.12 µM with MCF7 [8]; 0.949 µM with A549 [9]; 0.821 µM in the test with HCT-116; 1.95 µM in the test with HepG2; 0.145 µM in test [1]. Also, in test [10], the inhibition (commonly the percentage by which the read-out fell short of the control) was determined as 41.1%.
As to `CCCCCCCNc1nc(NCc2ccccc2)c2n[nH]c(C(C)C)c2n1`, the GI50 (in general, the concentration that inhibits growth by half) turned out to be 21.4 µM in the test on MCF7 [11] and 17 µM with K562. In [1], this molecule returned a half-maximal inhibitory concentration (IC50) of over 1000 µM.
Consider `CCN1CCN(c2ccc(Nc3ncc(F)c(-c4cnc5cnn(C(C)C)c5c4)n3)cc2F)CC1`, for which the IC50 in test [12] was 0.007 µM; in [13], 0.011 µM.
Take `CCOc1ccc(/C=C2/C(=O)N(c3ccc(Cl)cc3)N=C2C)cc1`: the IC50 in test [14] worked out at 0.077 nM; in [15], 0.00012 µM.
Consider `Cc1ccc(NNC(=O)[C@H]2CCCN2C(=O)Nc2ccc(C(F)(F)F)cc2)cc1`, for which the IC50 with A549 [16] worked out at 3.9 µM; in the test on MCF7 [17], 3.7 µM; in the test with PANC-1, 4.1 µM; in the test on HT-29, 4.2 µM.
For the molecule `O=C(c1ccc2ccccc2c1)c1cn(-c2ccccc2)nc1C1=Nn2cnnc2SC1`, the IC50 in test [18] was found to be 0.0647 µM.
For the molecule `O=C(CC(=O)Nc1cccc(C(=O)Nc2cccc(Nc3ncc(Cl)c(-c4c[nH]c5ccccc45)n3)c2)c1)NO`, the IC50 was 18.1 µM in the test with MCF7 [19] and 23 µM in the test on MDA-MB-231 [20].
As for `CCOc1ccc(C2C(C#N)=C(N)OC3C2C(C)=NN3c2ccc(Cl)cc2)cc1` (centres undefined), the IC50 in test [14] was 1.26 nM; in test [15] it was 0.00021 µM.
With `O=C(Nc1cc(-c2ccc3nc4c([nH]c5ccccc54)c(N4CCOCC4)c3c2)ccn1)C1CC1`, the inhibition in test [10] worked out at 5.31%. This molecule returned an IC50 in test [1] of 3.91 µM.
In turn, `COC[C@@H](C)N[C@H]1CC[C@H](Nc2cc(-c3cccc(NCC4(C#N)CCOCC4)n3)c(Cl)cn2)CC1` gave an IC50 in test [21] of 0.00051 µM.
Take `CN(C)C/C=C/C(=O)Nc1cccc(C(=O)Nc2cccc(Nc3ncc(Cl)c(-c4c[nH]c5ccccc45)n3)c2)c1`: it took 0.019 µM to reach half-maximal inhibition in [22] (IC50).
On Histone deacetylase 2, `Nc1ccc(F)cc1NC(=O)c1ccc(CNC(=O)/C=C/c2cccnc2)cc1` displayed an IC50 of 0.093 µM.
`Cc1cc(C)cc(NNC(=O)[C@H]2CCCN2C(=O)Nc2ccc(Cl)cc2)c1`: the IC50 stood at 0.096 µM in [15] and 0.015 µM in [1].
Consider `O=C(Nc1ccc2c(ccn2C(=O)c2cccc(F)c2)c1)c1ccnnc1`, for which the inhibition in test [23] was determined as 51%; in test [24], 52%.
`Cc1n[nH]c2c1C(c1ccc(F)cc1)C(C#N)=C(N)O2` (centres undefined): the IC50 in the test on HeLa was determined as 1.9 µM; in test [25] it was 2.8 µM; in the test on SK-OV-3 [26] it was 2.03 µM; in the test on A549 [27], 1.8 µM.
On to `C[C@@H](NCCCc1cccc(C(F)(F)F)c1)c1cccc2ccccc12`, for which the IC50 in test [28] was 2.8 µM.
For `O=C(c1ccc2ccccc2c1)c1cn(-c2ccccc2)nc1C1=Nn2c(S)nnc2SC1`, the IC50 in [29] came out at 0.0896 µM; in test [18], 0.165 µM.
For the molecule `Cc1cc(C)cc(NNC(=O)[C@H]2CCCN2C(=O)Nc2ccc(C(F)(F)F)cc2)c1`, the IC50 came to 0.087 µM in test [15] and 0.023 µM in [1].
Regarding `CCN1CCN(c2ccc(Nc3ncc(F)c(-c4cnc5cnn(C(C)C)c5c4)n3)cc2)CC1`, the IC50 in test [12] was 0.01 µM; in [13], 0.008 µM.
On to `O=C(CCCCCCC(=O)Nc1cccc(C(=O)Nc2cccc(Nc3ncc(Cl)c(-c4c[nH]c5ccccc45)n3)c2)c1)NO`, for which the IC50 turned out to be 0.893 µM in [22] and 0.248 µM against Histone deacetylase 1.
In the case of `Cc1cc(=O)n(C2CCCC2)c2nc(NCCC3CCN(C(=O)c4cc(Cc5n[nH]c(=O)c6ccccc56)ccc4F)CC3)ncc12`, the IC50 in test [30] is 0.041 µM; in the test on BT-549, 2.37 µM; in the test on MDA-MB-231 [31], 1.96 µM; in the test with MDA-MB-468 it was 2.81 µM; in test [32] it was 0.127 µM.
